Measurements from BigSolDB 2.1.

NC(=O)CS(=O)C(c1ccccc1)c1ccccc1 (stereo not given)
Conditions	solubility (mole fraction)
in 2-butanone, 281 K	0.00114
in 2-butanone, 304.7 K	0.00253
in 2-butanone, 307.3 K	0.00278
in 2-butanone, 314.1 K	0.00354
in 2-butanone, 317.8 K	0.00401
in 2-butanone, 319.6 K	0.00429
in 2-butanone, 329.4 K	0.0059
in 2-butanone, 332.8 K	0.00661
in DMF, 280.7 K	0.0552
in DMF, 283.3 K	0.0579
in DMF, 290.8 K	0.0656
in DMF, 293.6 K	0.0702
in DMF, 300.1 K	0.0784
in DMF, 311.5 K	0.0926
in DMF, 318 K	0.103
in DMF, 320.4 K	0.108
in acetone, 278.2 K	0.00141
in acetone, 284 K	0.00175
in acetone, 290.4 K	0.0021
in acetone, 294.1 K	0.00239
in acetone, 303.2 K	0.00321
in acetone, 307.5 K	0.00371
in acetone, 311.8 K	0.00426
in acetone, 320.2 K	0.0057
in acetonitrile, 286.3 K	0.000684
in acetonitrile, 293.1 K	0.000981
in acetonitrile, 297.9 K	0.00132
in acetonitrile, 301.4 K	0.00163
in acetonitrile, 304.4 K	0.00195
in acetonitrile, 311.1 K	0.00292
in acetonitrile, 322 K	0.00578
in acetonitrile, 326.4 K	0.00729
in ethanol, 280.6 K	0.000668
in ethanol, 285.2 K	0.000755
in ethanol, 288.4 K	0.000917
in ethanol, 294.2 K	0.00111
in ethanol, 304.2 K	0.00167
in ethanol, 313.7 K	0.00253
in ethanol, 322.8 K	0.00377
in ethanol, 330 K	0.00527
in ethyl acetate, 273.2 K	0.00046
in ethyl acetate, 288 K	0.000602
in ethyl acetate, 291.9 K	0.000709
in ethyl acetate, 298 K	0.000844
in ethyl acetate, 303.5 K	0.001
in ethyl acetate, 312.3 K	0.00141
in ethyl acetate, 322.2 K	0.002
in ethyl acetate, 328.3 K	0.00255
in isopropanol, 283.2 K	0.000603
in isopropanol, 287.9 K	0.00086
in isopropanol, 295.8 K	0.00106
in isopropanol, 299.8 K	0.00129
in isopropanol, 308.5 K	0.00193
in isopropanol, 317.6 K	0.00291
in isopropanol, 323.5 K	0.00388
in isopropanol, 331.5 K	0.00607
in methanol, 277.9 K	0.00189
in methanol, 289 K	0.0028
in methanol, 297.5 K	0.00394
in methanol, 301.8 K	0.00459
in methanol, 308.4 K	0.0059
in methanol, 314 K	0.00744
in methanol, 318.2 K	0.00891
in methanol, 319.7 K	0.00945
in n-propanol, 284.5 K	0.001
in n-propanol, 291.9 K	0.00131
in n-propanol, 299 K	0.00184
in n-propanol, 300.4 K	0.00195
in n-propanol, 314.3 K	0.00362
in n-propanol, 316.9 K	0.00411
in n-propanol, 319.9 K	0.00475
in n-propanol, 324.8 K	0.00585
in water, 290.7 K	5.4e-05
in water, 297.5 K	8.1e-05
in water, 300.5 K	8.8e-05
in water, 301.7 K	0.000103
in water, 309.5 K	0.00013
in water, 312.9 K	0.000177
in water, 320.8 K	0.000242
in water, 323.4 K	0.000281
